Values quoted from earlier work in patent publication US12107222B2, “Liquid electrolyte comprising organic carbonates and cyclic sulfoxides for applications in lithium secondary batteries” (Forschungszentrum Juelich GmbH, priority 2018, dated 2024).

Columns and labels:
human organism = conditions: classification in words
rat [1] = conditions: in vivo
rat [2] = system: rat
rat [3] = system: rat; remark: listed apart in the source

Structure (SMILES) | hazard classification (human organism) | LD50, rat, oral (rat [1]) | LD50, rabbit, dermal (rabbit) | also measured
[O-][S+]1CCCC1 [Tetrahydrothiophene-1-oxide] |  |  |  | LD50, mouse, intraperitoneal (mouse): LD50, mouse, intraperitoneal: 3,500
O=c1occo1 [Vinylene carbonate] | toxic on contact with the skin |  |  | 
CCC1COC(=O)O1 (stereo not drawn) [1,2-Butylene carbonate] |  | LD50, rat, oral: >5,000 mg/kg | LD50, rabbit, dermal: >2,000 mg/kg^[13] | 
CC1COC(=O)O1 (stereo not drawn) [Propylene carbonate] |  | LD50, rat, oral: >5,000 mg/kg | LD50, rabbit, dermal: >2,000 mg/kg^[2] | 
O=C1OCCO1 [Ethylene carbonate] |  |  |  | LC50, rat, inhalative, 7 h (rat [2]): LC50, rat, inhalative, 7 h: >1.268 mg/L^[12]; LD50, rat, dermal (rat [3]): LD50, rat, dermal: >2,000 mg/kg
O=S1(=O)CCCO1 [1,3-propane sultone] | carcinogenic and toxic |  |  | 
